According to ChEMBL document CHEMBL1201862, “PubChem BioAssay data set” (2004):
The source made the active and inactive calls.

Assays:
[1] = Shn3 3'UTR reporter inhibitors, dose response, cell-based, Clone20 osteoblasts, firefly luciferase, cherry-picked (AID 624132); format: functional;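 also: firefly luciferase luminescence from reporter carrying the Shn3 3'UTR in osteoblasts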
[2] = tested on: INS1; test: beta cell apoptosis inhibitors, cytokine rescue, dose response, luminescence, retest (AID 449756); format: functional, cell-based; details: Rattus norvegicus;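 also: cell death triggered by IL-1 beta plus TNF-alpha plus IFN-gamma mixture; protective hits raise ATP signal compared with cytokine alone wells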
[3] = HepG2 cell cytotoxicity, dose response, cytotoxicity control for Shn3 inhibitor project, CellTiter-Glo, cherry-picked (AID 624134); format: functional, cell-based
[4] = control 3'UTR Renilla luciferase suppression, dose response, counter-screen for Shn3 inhibitor project, cell-based, Clone20-Shn3RL, cherry-picked (AID 624133); format: functional
[5] = tested on: HEK293; test: inhibitors of LMP1-driven NF-kB reporter, dose response, cell-based, HEK293, luciferase, cherry-pick (AID 588343); format: functional; details: Homo sapiens
[6] = biological target: Latent membrane protein 1 (Human herpesvirus 4 (strain B95-8), UniProt P03230); test: TES1-eGFP NF-kB reporter inhibition versus Tet-On dsRED, dose response, selectivity assay for LMP1 NF-kB inhibitor project, imaging, HEK293T, dual-color eGFP/dsRED, cherry-picks (AID 588398); format: functional, cell-based
[7] = biological target: Beta Lactamase (Pseudomonas aeruginosa, UniProt Q932Y6); test: beta-lactamase reporter inhibitor potency, dose response, artefact control for TLR9-MyD88 binding inhibitor project, BLA reporter cells, FRET fluorescence (AID 588341); format: cell-based;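 also: cell based assay in CHO-K1 cells stably expressing beta-lactamase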
[8] = biological target: T1, Endoribonuclease toxin MazF (Escherichia coli K-12, UniProt P0AE70); test: fluorescent RNA oligo signal without MazF, dose response, counter-screen for MazEF activator project, biochemical, fluorescence, single-stranded RNase substrate (AID 588502); format: functional
T1 sequence (P0AE70 whole entry): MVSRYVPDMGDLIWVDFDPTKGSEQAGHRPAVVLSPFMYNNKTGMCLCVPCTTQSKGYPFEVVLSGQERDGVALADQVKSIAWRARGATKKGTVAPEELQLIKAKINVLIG

[9] = tested on: CHO; test: cytotoxicity in TLR9-MyD88 CHO cells, dose response, cytotoxicity control for TLR9-MyD88 binding inhibitor project, cell-based, luminescence (AID 588339); format: functional, hamster; details: Cricetulus griseus;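 also: CHO cells stably coexpressing TLR9 and MyD88 fusions from primary screen; compound exposure lasted 48 hours before viability readout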
[10] = biological target: T1, Endoribonuclease toxin MazF; test: MazF toxin RNase activators, dose response, biochemical, fluorescence, single-stranded RNA substrate, uHTS hits (AID 588481); format: functional
[11] = biological target: T2, Carboxy-terminal domain RNA polymerase II polypeptide A small phosphatase 1 (Homo sapiens, UniProt Q9GZU7); test: inhibitors of CTDSP1, concentration-response testing, biochemical assay, absorbance-based, actives from ultra-high-throughput screening (AID 540297); format: functional
T2 sequence (Q9GZU7 whole entry): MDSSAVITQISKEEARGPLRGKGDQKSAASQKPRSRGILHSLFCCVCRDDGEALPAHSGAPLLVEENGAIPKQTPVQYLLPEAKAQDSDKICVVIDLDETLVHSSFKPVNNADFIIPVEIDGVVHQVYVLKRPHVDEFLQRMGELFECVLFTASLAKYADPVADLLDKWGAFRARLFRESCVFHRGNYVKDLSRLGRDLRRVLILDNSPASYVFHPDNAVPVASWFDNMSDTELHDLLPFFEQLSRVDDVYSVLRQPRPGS

[12] = biological target: T3, Tyrosine-protein phosphatase non-receptor type 7 (Homo sapiens, UniProt P35236); format: functional
T3 sequence (P35236 whole entry): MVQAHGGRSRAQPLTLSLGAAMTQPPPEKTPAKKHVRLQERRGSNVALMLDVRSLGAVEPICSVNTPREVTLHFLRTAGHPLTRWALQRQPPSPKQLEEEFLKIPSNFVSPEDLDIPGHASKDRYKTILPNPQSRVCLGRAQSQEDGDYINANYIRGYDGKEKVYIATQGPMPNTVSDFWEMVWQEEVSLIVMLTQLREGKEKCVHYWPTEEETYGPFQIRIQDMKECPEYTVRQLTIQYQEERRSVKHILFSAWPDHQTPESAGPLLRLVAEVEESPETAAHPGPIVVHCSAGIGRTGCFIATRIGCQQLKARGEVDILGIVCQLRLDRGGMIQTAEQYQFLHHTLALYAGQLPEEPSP

[13] = biological target: T4, Bcl-2-like protein 10 (Homo sapiens, UniProt Q9HD36); test: displacers of TR3 peptide from Bcl-B, primary screen, selectivity assay for Bfl-1 inhibitor project, biochemical, fluorescence polarization, FITC-TR3 peptide (AID 748);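 also: fluorescence polarization from a fluorescein-labelled TR3 peptide binding purified Bcl-B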
T4 sequence (Q9HD36 whole entry): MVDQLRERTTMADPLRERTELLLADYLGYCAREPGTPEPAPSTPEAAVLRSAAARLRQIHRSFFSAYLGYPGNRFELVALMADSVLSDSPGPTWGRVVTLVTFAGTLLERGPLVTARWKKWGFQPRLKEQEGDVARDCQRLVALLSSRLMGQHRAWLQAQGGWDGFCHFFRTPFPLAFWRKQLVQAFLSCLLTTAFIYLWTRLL

[14] = biological target: T5, Dual specificity protein phosphatase 6 (Rattus norvegicus, UniProt Q64346); format: functional
T5 sequence (Q64346 whole entry): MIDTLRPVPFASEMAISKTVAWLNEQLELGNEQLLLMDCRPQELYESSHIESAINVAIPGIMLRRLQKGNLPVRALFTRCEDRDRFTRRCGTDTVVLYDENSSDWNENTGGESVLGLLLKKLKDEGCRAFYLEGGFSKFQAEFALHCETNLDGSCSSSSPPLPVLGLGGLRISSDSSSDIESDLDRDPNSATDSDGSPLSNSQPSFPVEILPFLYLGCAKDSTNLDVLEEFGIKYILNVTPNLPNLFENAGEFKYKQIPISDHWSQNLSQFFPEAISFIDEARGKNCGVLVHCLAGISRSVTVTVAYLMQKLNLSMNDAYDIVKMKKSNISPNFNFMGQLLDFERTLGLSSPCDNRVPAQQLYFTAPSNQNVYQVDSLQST

[15] = biological target: T5, Dual specificity protein phosphatase 6
[16] = biological target: T6, Estrogen receptor beta (Homo sapiens, UniProt Q92731); test: ERβ–SRC-3 coactivator interaction inhibitors, confirmation, orthogonal assay, biochemical, ELISA, streptavidin-HRP readout (AID 1060)
[17] = biological target: Glyceraldehyde-3-phosphate dehydrogenase (Homo sapiens, UniProt P04406)
[18] = biological target: T6, Estrogen receptor beta
[19] = biological target: T7, Intestinal-type alkaline phosphatase (Homo sapiens, UniProt P09923); test: Dose Response confirmation of uHTS hits from a small molecule inhibitors of human intestinal alkaline phosphatase via a luminescent assay. [Related pubchem assays (depositor defined):AID2544, AID2574]; format: functional
[20] = biological target: T7, Intestinal-type alkaline phosphatase; test: human IAP inhibitors, dose response, biochemical, luminescent, uHTS hits, set 2 (AID 488793); format: functional
[21] = biological target: T8, Alkaline phosphatase, tissue-nonspecific isozyme (Homo sapiens, UniProt P05186); test: inhibition of tissue-nonspecific alkaline phosphatase – biochemical, dose response (AID 488882); format: functional
T8 sequence (P05186 whole entry): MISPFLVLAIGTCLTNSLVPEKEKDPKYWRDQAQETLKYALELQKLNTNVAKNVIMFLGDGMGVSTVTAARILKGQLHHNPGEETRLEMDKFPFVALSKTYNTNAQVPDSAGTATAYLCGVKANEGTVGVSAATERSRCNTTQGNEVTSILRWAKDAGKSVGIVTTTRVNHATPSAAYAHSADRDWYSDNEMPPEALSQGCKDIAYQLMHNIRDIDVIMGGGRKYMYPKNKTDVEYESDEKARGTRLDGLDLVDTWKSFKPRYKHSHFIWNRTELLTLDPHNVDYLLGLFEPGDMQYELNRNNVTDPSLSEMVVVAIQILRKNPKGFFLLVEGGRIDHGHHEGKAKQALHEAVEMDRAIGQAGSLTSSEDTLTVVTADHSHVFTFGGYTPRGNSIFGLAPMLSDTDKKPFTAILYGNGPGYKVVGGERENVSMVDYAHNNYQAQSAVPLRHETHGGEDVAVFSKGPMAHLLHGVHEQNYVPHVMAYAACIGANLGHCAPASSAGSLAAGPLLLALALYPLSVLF

[22] = biological target: Dual specificity tyrosine-phosphorylation-regulated kinase 1A (Rattus norvegicus, UniProt Q63470); format: biochemical, Homo sapiens
[23] = biological target: Intestinal-type alkaline phosphatase (Mus musculus, UniProt P24822); test: PubChem AID 488874; format: functional
[24] = biological target: T9, Rac GTPase-activating protein 1 (Homo sapiens, UniProt Q9H0H5); test: MgcRacGAP GTPase-activating activity inhibitors, confirmation, biochemical, ADP Hunter fluorescence, primary and confirmatory (AID 624330); format: functional
T9 sequence (Q9H0H5 whole entry): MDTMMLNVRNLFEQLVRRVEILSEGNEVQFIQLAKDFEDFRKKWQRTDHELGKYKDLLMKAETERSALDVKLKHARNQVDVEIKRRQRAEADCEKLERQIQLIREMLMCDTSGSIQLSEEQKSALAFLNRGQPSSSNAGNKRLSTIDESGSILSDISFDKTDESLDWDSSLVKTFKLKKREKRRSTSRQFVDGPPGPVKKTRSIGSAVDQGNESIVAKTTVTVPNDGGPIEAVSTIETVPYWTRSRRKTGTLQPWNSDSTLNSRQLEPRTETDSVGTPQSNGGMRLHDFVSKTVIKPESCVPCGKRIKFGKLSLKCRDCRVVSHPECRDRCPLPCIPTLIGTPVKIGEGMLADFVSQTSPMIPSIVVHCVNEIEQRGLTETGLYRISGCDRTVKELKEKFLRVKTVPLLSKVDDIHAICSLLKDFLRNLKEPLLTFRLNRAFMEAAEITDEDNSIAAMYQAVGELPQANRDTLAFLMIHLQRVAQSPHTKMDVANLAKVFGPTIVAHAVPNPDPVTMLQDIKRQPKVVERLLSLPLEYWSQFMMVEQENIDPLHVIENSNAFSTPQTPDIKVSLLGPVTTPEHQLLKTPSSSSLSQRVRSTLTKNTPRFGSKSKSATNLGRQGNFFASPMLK

[25] = biological target: Cytochrome P450 2C9 (Homo sapiens, UniProt P11712)
[26] = biological target: Cytochrome P450 2D6 (Homo sapiens, UniProt P10635);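 also: CYP2D6 member of a cytochrome P450 panel assay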
[27] = biological target: Cytochrome P450 3A4 (Homo sapiens, UniProt P08684);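 also: CYP3A4 tested as one member of a cytochrome P450 panel screen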
[28] = biological target: T10, Cytochrome P450 1A2 (Homo sapiens, UniProt P05177);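 also: PubChem cytochrome P450 panel assay, CYP1A2 panel member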
T10 sequence (P05177 whole entry): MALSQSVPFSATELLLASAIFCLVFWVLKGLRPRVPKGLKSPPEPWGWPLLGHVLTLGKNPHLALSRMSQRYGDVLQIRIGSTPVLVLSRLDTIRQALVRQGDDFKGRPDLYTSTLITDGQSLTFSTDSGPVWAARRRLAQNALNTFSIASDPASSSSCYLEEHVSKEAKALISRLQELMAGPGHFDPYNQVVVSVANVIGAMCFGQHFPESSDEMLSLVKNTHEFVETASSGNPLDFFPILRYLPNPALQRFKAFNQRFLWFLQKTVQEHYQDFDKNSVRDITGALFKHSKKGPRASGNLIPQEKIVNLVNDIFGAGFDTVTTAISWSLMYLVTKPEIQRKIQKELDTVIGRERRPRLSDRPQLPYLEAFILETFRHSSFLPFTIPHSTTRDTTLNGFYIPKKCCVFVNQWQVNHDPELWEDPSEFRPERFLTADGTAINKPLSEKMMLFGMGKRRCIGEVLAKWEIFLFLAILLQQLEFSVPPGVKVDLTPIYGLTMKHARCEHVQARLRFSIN

[29] = biological target: T11, Microphthalmia-associated transcription factor (Homo sapiens, UniProt O75030); test: TRPM1 promoter luciferase signal decrease, dose response, MITF inhibitor project, cell-based, SK-MEL-5, cherry-picked, set 3 (AID 493073); format: functional
T11 sequence (O75030 whole entry): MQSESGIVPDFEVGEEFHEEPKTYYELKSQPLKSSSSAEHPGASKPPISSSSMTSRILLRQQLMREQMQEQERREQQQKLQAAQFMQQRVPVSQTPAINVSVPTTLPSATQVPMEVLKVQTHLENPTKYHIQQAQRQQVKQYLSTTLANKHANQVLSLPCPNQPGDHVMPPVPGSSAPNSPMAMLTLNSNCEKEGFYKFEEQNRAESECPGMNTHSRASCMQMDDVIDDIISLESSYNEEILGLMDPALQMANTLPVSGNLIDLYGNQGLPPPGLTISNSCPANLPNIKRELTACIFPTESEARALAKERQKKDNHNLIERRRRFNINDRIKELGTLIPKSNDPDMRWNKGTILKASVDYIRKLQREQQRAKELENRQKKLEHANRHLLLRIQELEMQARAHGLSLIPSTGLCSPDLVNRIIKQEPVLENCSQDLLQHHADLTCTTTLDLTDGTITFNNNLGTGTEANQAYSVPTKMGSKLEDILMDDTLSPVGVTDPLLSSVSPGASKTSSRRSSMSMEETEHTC

T7 sequence (P09923 whole entry): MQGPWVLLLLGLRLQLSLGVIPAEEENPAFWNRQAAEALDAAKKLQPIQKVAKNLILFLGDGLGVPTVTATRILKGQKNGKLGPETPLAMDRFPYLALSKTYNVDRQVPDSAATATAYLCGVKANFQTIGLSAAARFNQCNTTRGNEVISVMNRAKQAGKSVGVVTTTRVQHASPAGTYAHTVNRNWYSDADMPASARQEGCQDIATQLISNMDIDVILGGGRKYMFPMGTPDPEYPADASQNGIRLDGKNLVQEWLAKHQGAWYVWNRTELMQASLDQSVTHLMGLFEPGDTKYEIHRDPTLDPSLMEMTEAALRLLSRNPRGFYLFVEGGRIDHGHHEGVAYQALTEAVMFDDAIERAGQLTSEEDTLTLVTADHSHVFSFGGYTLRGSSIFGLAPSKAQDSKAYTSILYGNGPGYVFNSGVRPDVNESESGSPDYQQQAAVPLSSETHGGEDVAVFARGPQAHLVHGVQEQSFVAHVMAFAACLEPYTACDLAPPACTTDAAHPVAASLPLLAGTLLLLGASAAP
Sequence of Intestinal-type alkaline phosphatase (Mus musculus, UniProt P24822) (P24822 whole entry): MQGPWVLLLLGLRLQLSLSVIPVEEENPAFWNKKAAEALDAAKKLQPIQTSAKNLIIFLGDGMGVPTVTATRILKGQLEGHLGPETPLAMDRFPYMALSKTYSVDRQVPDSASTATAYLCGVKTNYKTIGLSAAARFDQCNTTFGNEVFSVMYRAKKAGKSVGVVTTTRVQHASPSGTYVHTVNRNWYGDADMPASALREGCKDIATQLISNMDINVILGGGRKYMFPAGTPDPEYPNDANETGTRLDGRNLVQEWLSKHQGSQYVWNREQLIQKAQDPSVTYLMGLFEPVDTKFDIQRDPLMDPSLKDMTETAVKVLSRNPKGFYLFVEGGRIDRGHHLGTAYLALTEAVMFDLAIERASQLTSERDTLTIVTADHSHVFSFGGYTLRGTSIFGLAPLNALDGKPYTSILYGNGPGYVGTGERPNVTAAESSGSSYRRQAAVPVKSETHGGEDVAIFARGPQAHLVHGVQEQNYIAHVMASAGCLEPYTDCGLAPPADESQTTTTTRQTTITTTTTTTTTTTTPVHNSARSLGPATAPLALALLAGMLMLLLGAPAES
T6 sequence (Q92731 whole entry): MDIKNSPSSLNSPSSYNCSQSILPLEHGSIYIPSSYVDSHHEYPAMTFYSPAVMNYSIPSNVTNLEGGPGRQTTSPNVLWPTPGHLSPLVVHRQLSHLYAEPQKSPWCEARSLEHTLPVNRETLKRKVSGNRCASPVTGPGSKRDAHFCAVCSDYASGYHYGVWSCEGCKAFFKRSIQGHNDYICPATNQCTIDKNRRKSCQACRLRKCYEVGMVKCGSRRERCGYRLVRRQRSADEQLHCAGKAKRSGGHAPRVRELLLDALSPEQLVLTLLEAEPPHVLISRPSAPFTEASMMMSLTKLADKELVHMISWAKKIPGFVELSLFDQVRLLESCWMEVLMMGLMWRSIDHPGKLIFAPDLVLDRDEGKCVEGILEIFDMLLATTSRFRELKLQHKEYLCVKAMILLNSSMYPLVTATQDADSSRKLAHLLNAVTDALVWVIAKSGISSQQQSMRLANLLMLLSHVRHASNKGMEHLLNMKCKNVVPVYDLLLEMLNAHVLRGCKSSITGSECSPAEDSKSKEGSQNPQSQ
Sequence of Latent membrane protein 1 (P03230 whole entry): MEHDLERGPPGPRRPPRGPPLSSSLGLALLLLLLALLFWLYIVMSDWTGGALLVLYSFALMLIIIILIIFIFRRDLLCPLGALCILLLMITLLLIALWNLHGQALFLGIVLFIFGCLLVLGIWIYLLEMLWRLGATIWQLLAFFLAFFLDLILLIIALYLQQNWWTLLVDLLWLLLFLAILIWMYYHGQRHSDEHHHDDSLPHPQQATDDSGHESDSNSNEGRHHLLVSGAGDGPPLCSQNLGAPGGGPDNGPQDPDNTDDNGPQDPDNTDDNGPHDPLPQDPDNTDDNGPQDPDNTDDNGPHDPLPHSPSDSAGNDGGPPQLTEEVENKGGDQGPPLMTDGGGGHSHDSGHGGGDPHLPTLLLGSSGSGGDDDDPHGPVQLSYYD
Sequence of Cytochrome P450 3A4 (P08684 whole entry): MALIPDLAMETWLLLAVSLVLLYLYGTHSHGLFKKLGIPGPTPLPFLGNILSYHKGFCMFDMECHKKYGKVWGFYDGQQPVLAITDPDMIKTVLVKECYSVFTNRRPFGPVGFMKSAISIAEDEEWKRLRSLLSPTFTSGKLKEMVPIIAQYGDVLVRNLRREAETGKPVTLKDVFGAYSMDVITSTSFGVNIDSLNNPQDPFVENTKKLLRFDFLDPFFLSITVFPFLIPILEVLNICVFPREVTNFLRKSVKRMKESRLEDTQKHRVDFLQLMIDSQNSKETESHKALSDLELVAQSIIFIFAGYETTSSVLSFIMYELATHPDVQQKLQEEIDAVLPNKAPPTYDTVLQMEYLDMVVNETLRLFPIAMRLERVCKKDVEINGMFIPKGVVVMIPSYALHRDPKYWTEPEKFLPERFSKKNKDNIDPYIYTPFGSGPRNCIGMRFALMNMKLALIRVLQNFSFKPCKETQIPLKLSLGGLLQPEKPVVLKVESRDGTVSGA
Sequence of Cytochrome P450 2D6 (P10635 whole entry): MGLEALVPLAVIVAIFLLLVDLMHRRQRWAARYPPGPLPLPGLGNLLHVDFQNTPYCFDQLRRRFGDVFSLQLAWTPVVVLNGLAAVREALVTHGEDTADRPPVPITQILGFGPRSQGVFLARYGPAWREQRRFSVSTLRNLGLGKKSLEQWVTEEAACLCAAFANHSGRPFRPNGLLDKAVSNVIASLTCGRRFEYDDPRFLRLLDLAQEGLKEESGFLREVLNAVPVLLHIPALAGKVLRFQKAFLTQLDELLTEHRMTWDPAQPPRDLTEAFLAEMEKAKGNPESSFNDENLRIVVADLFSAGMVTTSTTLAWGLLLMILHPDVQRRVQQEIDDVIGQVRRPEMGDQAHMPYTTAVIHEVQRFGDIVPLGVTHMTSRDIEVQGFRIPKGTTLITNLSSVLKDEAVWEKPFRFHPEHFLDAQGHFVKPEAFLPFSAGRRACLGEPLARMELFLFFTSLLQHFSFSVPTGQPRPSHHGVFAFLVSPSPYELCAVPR
Sequence of Beta Lactamase (Q932Y6 whole entry): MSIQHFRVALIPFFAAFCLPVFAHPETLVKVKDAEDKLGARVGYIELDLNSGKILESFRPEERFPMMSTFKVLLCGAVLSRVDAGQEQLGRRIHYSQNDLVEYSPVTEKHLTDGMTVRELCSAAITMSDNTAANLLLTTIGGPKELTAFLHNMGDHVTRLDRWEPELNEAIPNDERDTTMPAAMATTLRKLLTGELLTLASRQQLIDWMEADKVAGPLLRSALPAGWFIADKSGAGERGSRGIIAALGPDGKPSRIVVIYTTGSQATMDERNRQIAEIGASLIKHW
Sequence of Glyceraldehyde-3-phosphate dehydrogenase (P04406 whole entry): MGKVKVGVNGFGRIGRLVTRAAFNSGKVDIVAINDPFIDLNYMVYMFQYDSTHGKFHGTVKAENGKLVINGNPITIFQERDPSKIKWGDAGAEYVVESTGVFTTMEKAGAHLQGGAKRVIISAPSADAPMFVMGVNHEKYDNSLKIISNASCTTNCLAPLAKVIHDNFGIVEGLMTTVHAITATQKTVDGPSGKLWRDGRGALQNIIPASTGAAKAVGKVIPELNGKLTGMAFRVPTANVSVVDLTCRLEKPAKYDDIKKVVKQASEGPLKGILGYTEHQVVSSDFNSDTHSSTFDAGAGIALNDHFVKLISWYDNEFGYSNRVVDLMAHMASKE
Sequence of Cytochrome P450 2C9 (P11712 whole entry): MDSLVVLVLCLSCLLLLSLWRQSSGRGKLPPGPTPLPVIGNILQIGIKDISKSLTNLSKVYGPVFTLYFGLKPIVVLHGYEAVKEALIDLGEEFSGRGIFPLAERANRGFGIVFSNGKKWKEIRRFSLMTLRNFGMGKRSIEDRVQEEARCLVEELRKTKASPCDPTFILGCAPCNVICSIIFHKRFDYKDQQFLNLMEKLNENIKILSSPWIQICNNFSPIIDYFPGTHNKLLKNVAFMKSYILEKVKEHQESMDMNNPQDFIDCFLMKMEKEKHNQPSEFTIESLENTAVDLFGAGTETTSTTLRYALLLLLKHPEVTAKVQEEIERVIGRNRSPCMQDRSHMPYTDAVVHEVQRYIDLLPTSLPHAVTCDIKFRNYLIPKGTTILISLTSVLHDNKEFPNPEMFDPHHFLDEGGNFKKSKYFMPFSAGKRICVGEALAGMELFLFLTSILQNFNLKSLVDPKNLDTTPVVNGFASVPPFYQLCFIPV

CC(=O)NC(c1cccs1)c1cc(F)c2cccnc2c1O (stereo unspecified)
active: AC50 [1] 1.67 µM | AC50 [2] 1.58 µM | AC50 [3] 2.94 µM | AC50 [4] 5.16 µM | AC50 [5] 7.74 µM | AC50 [6] 13 µM

CC1C/C(=C/c2cccn2C)C(=O)/C(=C/c2cccn2C)C1 (stereo unspecified)
active: IC50 [7] 4.39 µM
inactive: EC50 [8] > 99 µM | IC50 [9] > 49.7 µM | EC50 [10] > 99 µM

CCCCCc1nnc(NC(=O)Cc2cccs2)s1
active: IC50 [11] 3.73 µM | IC50 [12] 6.28 µM | IC50 [13] 12.5 µM | IC50 [14] 17.2 µM | IC50 [15] 21.4 µM | IC50 [17] 98.6 µM | IC50 [18] < 1.56 µM
> 50 µM (not active): IC50 [16]

COc1ccc(C=C2C(=O)c3ccccc3C2=O)cc1O
inactive: IC50 [19] 12.7 µM
active: IC50 [20] 15.6 µM | IC50 [21] 15.6 µM | AC50 [22] 1.7 µM | IC50 [23] 15 µM | IC50 [24] 46.8 µM

O=P(O)(CP(=O)(c1ccccc1)c1ccccc1)c1ccccc1O
inconclusive: AC50 [25] 0.1 µM | AC50 [26] | AC50 [27] 17.8 µM | AC50 [28] 28.2 µM

CC(C)=CCc1c(O)ccc2c1OC(c1ccc(O)c(O)c1)CC2=O (stereo unspecified)
inactive: EC50 [8] > 99 µM | EC50 [10] > 99 µM
active: IC50 [19] 6.64 µM | AC50 [29] 11.7 µM | IC50 [20] 1.97 µM | IC50 [21] 88.8 µM | AC50 [22] 3.68 µM | IC50 [23] 11.5 µM
